Earlier results as cited in publication PMC8131289, “Direct Comparison of the Prediction of the Unbound Brain-to-Plasma Partitioning Utilizing Machine Learning Approach and Mechanistic Neuropharmacokinetic Model” (The AAPS Journal, 2021).
Where two headings read alike, the source gives them in different places.

What was measured:
MDR1 = MDR1 (Homo sapiens, UniProt P08183)
BCRP = target: T1, BCRP (Homo sapiens, UniProt Q9UNQ0)
T1 sequence (Q9UNQ0 1-655): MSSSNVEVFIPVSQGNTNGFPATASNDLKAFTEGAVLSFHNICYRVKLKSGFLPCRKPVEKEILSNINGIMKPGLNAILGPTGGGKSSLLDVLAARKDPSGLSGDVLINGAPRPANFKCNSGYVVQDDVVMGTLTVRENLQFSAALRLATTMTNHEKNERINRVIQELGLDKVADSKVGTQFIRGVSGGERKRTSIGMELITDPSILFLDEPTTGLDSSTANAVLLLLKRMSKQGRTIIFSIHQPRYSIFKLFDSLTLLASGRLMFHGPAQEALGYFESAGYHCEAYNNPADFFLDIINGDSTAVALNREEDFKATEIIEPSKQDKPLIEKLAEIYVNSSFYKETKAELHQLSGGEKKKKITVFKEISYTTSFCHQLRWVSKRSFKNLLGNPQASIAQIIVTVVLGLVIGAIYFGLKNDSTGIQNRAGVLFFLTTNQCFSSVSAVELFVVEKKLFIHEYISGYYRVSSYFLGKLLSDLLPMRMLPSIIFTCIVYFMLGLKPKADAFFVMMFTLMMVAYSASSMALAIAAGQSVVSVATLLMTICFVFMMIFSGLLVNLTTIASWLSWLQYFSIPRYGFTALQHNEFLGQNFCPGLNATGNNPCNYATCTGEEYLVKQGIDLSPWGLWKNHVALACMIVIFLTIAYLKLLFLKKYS

[1] = external dataset
[2] = MDCK-MDR1 cells, external dataset, ref (17)
[3] = MDCK-BCRP cells, external dataset, ref (17)

Chain of MDR1 (P08183 whole entry): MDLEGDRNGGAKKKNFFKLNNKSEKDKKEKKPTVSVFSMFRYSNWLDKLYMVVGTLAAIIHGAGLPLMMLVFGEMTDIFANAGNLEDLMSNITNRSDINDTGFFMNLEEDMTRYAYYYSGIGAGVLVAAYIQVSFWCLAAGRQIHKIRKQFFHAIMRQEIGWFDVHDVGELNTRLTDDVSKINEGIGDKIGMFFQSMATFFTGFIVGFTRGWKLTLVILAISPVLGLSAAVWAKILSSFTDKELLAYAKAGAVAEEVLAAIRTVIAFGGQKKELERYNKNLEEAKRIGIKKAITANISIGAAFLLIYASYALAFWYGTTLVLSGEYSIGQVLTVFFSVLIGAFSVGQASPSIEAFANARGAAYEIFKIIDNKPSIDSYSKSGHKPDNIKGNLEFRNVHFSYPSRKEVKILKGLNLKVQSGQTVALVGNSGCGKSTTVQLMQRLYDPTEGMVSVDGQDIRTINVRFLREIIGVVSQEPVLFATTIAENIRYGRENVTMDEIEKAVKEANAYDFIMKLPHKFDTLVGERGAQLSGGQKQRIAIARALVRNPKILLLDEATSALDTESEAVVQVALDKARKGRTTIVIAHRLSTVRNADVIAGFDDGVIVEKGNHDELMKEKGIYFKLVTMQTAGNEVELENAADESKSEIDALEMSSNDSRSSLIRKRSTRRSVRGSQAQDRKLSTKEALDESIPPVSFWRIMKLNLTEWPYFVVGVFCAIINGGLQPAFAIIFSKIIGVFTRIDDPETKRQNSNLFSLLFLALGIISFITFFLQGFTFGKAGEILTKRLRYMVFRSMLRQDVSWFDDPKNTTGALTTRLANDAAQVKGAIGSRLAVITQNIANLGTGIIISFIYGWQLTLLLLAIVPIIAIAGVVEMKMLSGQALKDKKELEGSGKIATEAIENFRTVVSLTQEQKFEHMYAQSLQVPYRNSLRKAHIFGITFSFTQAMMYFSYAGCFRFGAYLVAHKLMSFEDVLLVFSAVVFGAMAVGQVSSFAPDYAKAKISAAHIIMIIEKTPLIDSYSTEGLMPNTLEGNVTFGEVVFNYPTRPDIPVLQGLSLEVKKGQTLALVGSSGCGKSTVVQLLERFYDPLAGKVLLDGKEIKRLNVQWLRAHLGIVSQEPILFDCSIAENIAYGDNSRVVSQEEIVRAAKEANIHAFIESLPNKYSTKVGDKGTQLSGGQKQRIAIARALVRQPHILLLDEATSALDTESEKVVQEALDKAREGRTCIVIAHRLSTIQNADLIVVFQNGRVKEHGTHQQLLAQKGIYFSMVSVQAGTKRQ

SMILES | Efflux ratio MDR1 (MDR1; [2]) | Efflux ratio BCRP (BCRP; [3]) | Kp,uu,brain ([1]; ref (30)) | also measured
Cc1cc(=O)n(-c2ccccc2)n1C [Antipyrine] | – | – | – | Efflux ratio MDR1 (MDR1; MDCK-MDR1): 0.91; Efflux ratio BCRP (BCRP): 0.96
CC(NC(C)(C)C)C(=O)c1cccc(Cl)c1 (centres unmarked) [Bupropion] | 1.2 | 0.80 | – | –
NC(=O)N1c2ccccc2C=Cc2ccccc21 [Carbamazepine] | 1.26 | 0.88 | 0.389 | –
C#Cc1cccc(Nc2ncnc3cc(OCCOC)c(OCCOC)cc23)c1 [Erlotinib] | – | – | – | Kp,uu,brain ([1]; ref (17)): 0.0614
CNCCC(Oc1ccc(C(F)(F)F)cc1)c1ccccc1 (centres unmarked) [Fluoxetine] | – | – | 2.14 | –
COc1ccc2c(c1)c(CC(=O)O)c(C)n2C(=O)c1ccc(Cl)cc1 [Indomethacin] | 4.4 | 20 | – | –
CN(C)C(=O)C(CCN1CCC(O)(c2ccc(Cl)cc2)CC1)(c1ccccc1)c1ccccc1 [Loperamide] | – | – | 0.0244 | –
CN(Cc1cnc2nc(N)nc(N)c2n1)c1ccc(C(=O)N[C@@H](CCC(=O)O)C(=O)O)cc1 [Methotrexate] | 1.42 | – | – | –
CN1CCN2c3ncccc3Cc3ccccc3C2C1 (centres unmarked) [Mirtazapine] | – | – | 1.61 | –
CC(C)NCC(O)COc1cccc2[nH]ccc12 (centres unmarked) [Pindolol] | 5.4 | – | – | –
CN[C@H]1CC[C@@H](c2ccc(Cl)c(Cl)c2)c2ccccc21 [Sertraline] | 0.46 | – | – | –
CSc1ccc2c(c1)N(CCC1CCCCN1C)c1ccccc1S2 (centres unmarked) [Thioridazine] | 2.6 | 0.57 | 1.43 | –
COc1ccc(C(CN(C)C)C2(O)CCCCC2)cc1 (centres unmarked) [Venlafaxine] | – | – | 1.07 | –
